Target: T1, G9a methyltransferase (Homo sapiens, UniProt Q96KQ7)
T1 sequence (Q96KQ7 1-1210): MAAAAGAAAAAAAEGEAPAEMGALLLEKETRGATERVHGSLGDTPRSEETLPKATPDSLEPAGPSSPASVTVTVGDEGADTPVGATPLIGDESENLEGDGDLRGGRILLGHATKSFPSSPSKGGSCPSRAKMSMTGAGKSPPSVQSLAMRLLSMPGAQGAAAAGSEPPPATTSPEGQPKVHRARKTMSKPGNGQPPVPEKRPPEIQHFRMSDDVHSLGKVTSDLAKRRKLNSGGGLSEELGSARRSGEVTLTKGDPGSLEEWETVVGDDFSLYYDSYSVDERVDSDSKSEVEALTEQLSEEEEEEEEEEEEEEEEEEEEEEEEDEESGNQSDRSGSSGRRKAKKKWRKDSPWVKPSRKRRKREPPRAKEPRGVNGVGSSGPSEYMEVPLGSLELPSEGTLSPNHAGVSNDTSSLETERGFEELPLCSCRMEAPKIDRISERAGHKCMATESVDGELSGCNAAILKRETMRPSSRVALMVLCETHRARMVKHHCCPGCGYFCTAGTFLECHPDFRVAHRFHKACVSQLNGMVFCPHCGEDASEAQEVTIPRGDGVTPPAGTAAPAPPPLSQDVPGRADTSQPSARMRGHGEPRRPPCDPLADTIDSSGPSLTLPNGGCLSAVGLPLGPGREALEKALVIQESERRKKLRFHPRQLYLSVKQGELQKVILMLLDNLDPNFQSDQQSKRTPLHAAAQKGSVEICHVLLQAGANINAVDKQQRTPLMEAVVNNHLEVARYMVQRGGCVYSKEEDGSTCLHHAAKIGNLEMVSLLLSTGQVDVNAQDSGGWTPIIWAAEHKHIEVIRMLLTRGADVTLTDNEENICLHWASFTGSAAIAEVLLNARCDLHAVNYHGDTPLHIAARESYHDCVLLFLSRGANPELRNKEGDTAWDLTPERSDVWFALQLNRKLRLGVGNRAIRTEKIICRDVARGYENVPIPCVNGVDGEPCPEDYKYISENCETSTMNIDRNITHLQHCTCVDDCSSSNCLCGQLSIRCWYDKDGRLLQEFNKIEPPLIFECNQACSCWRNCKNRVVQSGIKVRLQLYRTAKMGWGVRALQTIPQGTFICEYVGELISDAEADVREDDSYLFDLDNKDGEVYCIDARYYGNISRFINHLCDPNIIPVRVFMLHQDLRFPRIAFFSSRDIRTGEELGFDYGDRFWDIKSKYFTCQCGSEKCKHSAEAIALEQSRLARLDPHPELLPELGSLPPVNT
Assay: G9a histone methyltransferase inhibitor dose response, coupled-enzyme AMP fluorescent immunodetection assay (FIG. 6)
Format: biochemical
Method: In addition, inhibitor potencies were determined with G9a HMT.
HMT reactions were run for 60 minutes followed by addition of quench and detection reagents including the SAM-SAH coupling enzyme mixture and the Transcreener® AMP2/GMP2 Assay monoclonal antibody and tracer.

Structure (SMILES): CN1C(=O)[C@@]23C[C@]4([C@]56C[C@@]78SS[C@@](CO)(C(=O)N7[C@H]5Nc5ccccc56)N(C)C8=O)c5ccccc5N[C@@H]4N2C(=O)[C@]1(CO)SS3 [chaetocin]
- IC50: 770 µM
